Experiments:
Assay type in all cases: in vivo
Kochia (Kochia scoparia) [1] = assay: Test A preemergence; conditions: Bassia scoparia, pre-emergence, 240 h; for pest or weed control at 125 g/ha: 125 g ai/ha, preemergence, 0 to 100 scale where 0 is no effect and 100 is complete control, read-out: Kochia plant response rating; for pest or weed control at 500 g/ha: 500 g ai/ha, Preemergence, visual injury vs untreated controls after approximately 10 d, read-out: Kochia plant response rating (0 to 100 scale where 0 is no effect and 100 is complete control)
Method in brief: (§1)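 Visual injury, scored on a 0–100 scale relative to untreated controls, was recorded about 10 d after application. Treatments were a preemergence soil spray over planted seeds or a postemergence spray on plants at the one- to two-leaf stage, 2 to 10 cm tall, all in loam soil–sand blend in the greenhouse.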

[2] = test system: barnyardgrass (Echinochloa crus-galli); assay: Test A preemergence; conditions: Echinochloa crus-galli, pre-emergence, 240 h; for pest or weed control at 125 g/ha: 125 g ai/ha, preemergence, 0 to 100 scale where 0 is no effect and 100 is complete control, read-out: Barnyardgrass plant response rating; for pest or weed control at 500 g/ha: 500 g ai/ha, Preemergence, visual injury vs untreated controls after approximately 10 d, read-out: Barnyardgrass plant response rating (0 to 100 scale where 0 is no effect and 100 is complete control)
Method in brief: as §1

[3] = test system: giant foxtail (Setaria faberii); assay: Test A preemergence; conditions: Setaria faberi, pre-emergence, 240 h; for pest or weed control at 125 g/ha: 125 g ai/ha, preemergence, 0 to 100 scale where 0 is no effect and 100 is complete control, read-out: Foxtail, Giant plant response rating; for pest or weed control at 500 g/ha: 500 g ai/ha, Preemergence, visual injury vs untreated controls after approximately 10 d, read-out: Foxtail, Giant plant response rating (0 to 100 scale where 0 is no effect and 100 is complete control)
Method in brief: as §1

[4] = test system: pigweed (Amaranthus retroflexus); assay: Test A preemergence; conditions: Amaranthus retroflexus, pre-emergence, 240 h; for pest or weed control at 125 g/ha: 125 g ai/ha, preemergence, 0 to 100 scale where 0 is no effect and 100 is complete control, read-out: Pigweed plant response rating; for pest or weed control at 500 g/ha: 500 g ai/ha, Preemergence, visual injury vs untreated controls after approximately 10 d, read-out: Pigweed plant response rating (0 to 100 scale where 0 is no effect and 100 is complete control)
[5] = test system: ragweed (common ragweed, Ambrosia elatior); assay: Test A preemergence; conditions: Ambrosia artemisiifolia, pre-emergence, 240 h; for pest or weed control at 125 g/ha: 125 g ai/ha, preemergence, 0 to 100 scale where 0 is no effect and 100 is complete control, read-out: Ragweed plant response rating; for pest or weed control at 500 g/ha: 500 g ai/ha, Preemergence, visual injury vs untreated controls after approximately 10 d, read-out: Ragweed plant response rating (0 to 100 scale where 0 is no effect and 100 is complete control)
Method in brief: as §1

[6] = test system: ryegrass, Italian (Italian ryegrass, Lolium multiflorum); assay: Test A preemergence; conditions: Lolium multiflorum, pre-emergence, 240 h; for pest or weed control at 125 g/ha: 125 g ai/ha, preemergence, 0 to 100 scale where 0 is no effect and 100 is complete control, read-out: Ryegrass, Italian plant response rating; for pest or weed control at 500 g/ha: 500 g ai/ha, Preemergence, visual injury vs untreated controls after approximately 10 d, read-out: Ryegrass, Italian plant response rating (0 to 100 scale where 0 is no effect and 100 is complete control)
Method in brief: as §1

[7] = test system: Galium (catchweed bedstraw, Galium aparine); assay: Test A postemergence; conditions: Galium, post-emergence, 240 h, 125 g ai/ha, postemergence, visual injury rating after approximately 10 d; read-out: Galium plant response rating (0 to 100 scale, 0 no effect, 100 complete control)
Method in brief: as §1

Kochia (Kochia scoparia) [8] = assay: Test A postemergence; conditions: Bassia scoparia, post-emergence, 240 h, 125 g ai/ha, postemergence, visual injury rating after approximately 10 d; read-out: Kochia plant response rating (0 to 100 scale, 0 no effect, 100 complete control)
Method in brief: as §1

[9] = test system: barnyardgrass (Echinochloa crus-galli); assay: Test A postemergence; conditions: Echinochloa crus-galli, post-emergence, 240 h, 125 g ai/ha, postemergence, visual injury rating after approximately 10 d; read-out: Barnyardgrass plant response rating (0 to 100 scale, 0 no effect, 100 complete control)
Method in brief: as §1

[10] = test system: blackgrass (Alopecurus myosuroides); assay: Test A postemergence; conditions: Alopecurus myosuroides, post-emergence, 240 h, 125 g ai/ha, postemergence, visual injury rating after approximately 10 d; read-out: Blackgrass plant response rating (0 to 100 scale, 0 no effect, 100 complete control)
Method in brief: as §1

corn (Zea mays) = assay: Test A postemergence; conditions: Zea mays, post-emergence, 240 h, 125 g ai/ha, postemergence, visual injury rating after approximately 10 d; read-out: Corn plant response rating (0 to 100 scale, 0 no effect, 100 complete control)
Method in brief: as §1

[11] = test system: giant foxtail (Setaria faberii); assay: Test A postemergence; conditions: Setaria faberi, post-emergence, 240 h, 125 g ai/ha, postemergence, visual injury rating after approximately 10 d; read-out: Foxtail, Giant plant response rating (0 to 100 scale, 0 no effect, 100 complete control)
Method in brief: as §1

[12] = test system: pigweed (Amaranthus retroflexus); assay: Test A postemergence; conditions: Amaranthus retroflexus, post-emergence, 240 h, 125 g ai/ha, postemergence, visual injury rating after approximately 10 d; read-out: Pigweed plant response rating (0 to 100 scale, 0 no effect, 100 complete control)
Method in brief: as §1

[13] = test system: ryegrass, Italian (Italian ryegrass, Lolium multiflorum); assay: Test A postemergence; conditions: Lolium multiflorum, post-emergence, 240 h, 125 g ai/ha, postemergence, visual injury rating after approximately 10 d; read-out: Ryegrass, Italian plant response rating (0 to 100 scale, 0 no effect, 100 complete control)
Method in brief: as §1

[14] = test system: wheat (Triticum aestivum); assay: Test A postemergence; conditions: Triticum aestivum, post-emergence, 240 h, 125 g ai/ha, postemergence, visual injury rating after approximately 10 d; read-out: Wheat plant response rating (0 to 100 scale, 0 no effect, 100 complete control)
Method in brief: as §1

Compound	pest or weed control at 125 g/ha (Kochia (Kochia scoparia) [1]) [%]	pest or weed control at 500 g/ha (Kochia (Kochia scoparia) [1]) [%]	pest or weed control at 125 g/ha [2] [%]	pest or weed control at 500 g/ha [2] [%]	pest or weed control at 125 g/ha [3] [%]	pest or weed control at 500 g/ha [3] [%]	pest or weed control at 125 g/ha [4] [%]	pest or weed control at 500 g/ha [4] [%]	pest or weed control at 125 g/ha [5] [%]	pest or weed control at 500 g/ha [5] [%]	pest or weed control at 125 g/ha [6] [%]	pest or weed control at 500 g/ha [6] [%]	pest or weed control at 125 g/ha [7] [%]	pest or weed control at 125 g/ha (Kochia (Kochia scoparia) [8]) [%]	pest or weed control at 125 g/ha [9] [%]	pest or weed control at 125 g/ha [10] [%]	plant injury at 125 g/ha (corn (Zea mays)) [%]	pest or weed control at 125 g/ha [11] [%]	pest or weed control at 125 g/ha [12] [%]	pest or weed control at 125 g/ha [13] [%]	other results
Cc1c(F)cccc1NC(=O)[C@H]1C(=O)N(C)C[C@@H]1c1cccc(COC(F)F)c1 [Compound 874]	60	90	90	100	90	100	20	30	20	60	40	50	20	20	90	60	50	90	0	20	plant injury at 125 g/ha [14]: 20%
CN1C[C@H](c2cccc(COC(F)F)c2)[C@@H](C(=O)Nc2ccccc2F)C1=O [Compound 875]	50	80	90	90	90	90	0	0	0	50	0	30	40	40	90	20	20	90	0	20	plant injury at 125 g/ha [14]: 0%
CSc1ccccc1NC(=O)[C@H]1C(=O)N(C)C[C@@H]1c1cccc(COC(F)F)c1 [Compound 876]	0	70	60	90	80	100	0	30	0	80	0	30	0	50	60	0	0	40	0	0	plant injury at 125 g/ha [14]: 0%
CN1C[C@H](c2cc(F)c(F)c(F)c2)[C@@H](C(=O)Nc2ccccc2F)C1=O [Compound 878]	70	90	100	100	100	100	0	40	30	80	30	70	50	20	100	60	50	80	0	40	plant injury at 125 g/ha [14]: 60%
Cc1cc(C)cc([C@H]2CNC(=O)[C@@H]2C(=O)Nc2cccc(F)c2F)c1 [Compound 889]	80	80	90	90	90	90	0	0	30	40	30	40	30	0	70	20	20	40	0	40	plant injury at 125 g/ha [14]: 0%
COc1c(F)ccc([C@H]2CNC(=O)[C@@H]2C(=O)Nc2ccc(F)c(F)c2F)c1Cl [Compound 890]	40	90	90	90	90	90	30	50	0	0	50	70	50	60	90	20	20	70	0	0	plant injury at 125 g/ha [14]: 0%

— patent publication US12077503B2, “Substituted cyclic amides and their use as herbicides” (FMC CORPORATION, priority 2015, dated 2024)
